Data on two compounds can be found in paper PMC5814754, “Quantitative, Wide-Spectrum Kinase Profiling in Live Cells for Assessing the Effect of Cellular ATP on Target Engagement” (Cell Chemical Biology, 2018).

Holding throughout (assay): Apparent affinity (EC50) of energy transfer probes by titration onto live HEK293 cells expressing kinase/Nluc fusions (Table S1)
What all share (format): binding

For test [1], the target named is full-length kinase/Nluc fusion proteins (Homo sapiens, UniProt P16591). The note with it: FER, Nluc C; read-out: Probe EC50.
Test [2] deals with full-length kinase/Nluc fusion proteins (Homo sapiens, UniProt O60674). The conditions noted are these: JAK2, Nluc C; read-out: Probe EC50.
For test [3], the target named is full-length kinase/Nluc fusion proteins (Homo sapiens, UniProt Q9UF33). The conditions noted are these: EPHA6, Nluc C; read-out: Probe EC50.
Test [4] concerns the target full-length kinase/Nluc fusion proteins (Homo sapiens, UniProt P49759). The conditions noted are these: CLK1, Nluc N; read-out: Probe EC50.
Test [5] deals with full-length kinase/Nluc fusion proteins (Homo sapiens, UniProt Q02779). The conditions noted are these: MAP3K10, Nluc N; read-out: Probe EC50.
Sequence of full-length kinase/Nluc fusion proteins (Homo sapiens, UniProt Q02779) (Q02779 whole entry, the tested form may be a part): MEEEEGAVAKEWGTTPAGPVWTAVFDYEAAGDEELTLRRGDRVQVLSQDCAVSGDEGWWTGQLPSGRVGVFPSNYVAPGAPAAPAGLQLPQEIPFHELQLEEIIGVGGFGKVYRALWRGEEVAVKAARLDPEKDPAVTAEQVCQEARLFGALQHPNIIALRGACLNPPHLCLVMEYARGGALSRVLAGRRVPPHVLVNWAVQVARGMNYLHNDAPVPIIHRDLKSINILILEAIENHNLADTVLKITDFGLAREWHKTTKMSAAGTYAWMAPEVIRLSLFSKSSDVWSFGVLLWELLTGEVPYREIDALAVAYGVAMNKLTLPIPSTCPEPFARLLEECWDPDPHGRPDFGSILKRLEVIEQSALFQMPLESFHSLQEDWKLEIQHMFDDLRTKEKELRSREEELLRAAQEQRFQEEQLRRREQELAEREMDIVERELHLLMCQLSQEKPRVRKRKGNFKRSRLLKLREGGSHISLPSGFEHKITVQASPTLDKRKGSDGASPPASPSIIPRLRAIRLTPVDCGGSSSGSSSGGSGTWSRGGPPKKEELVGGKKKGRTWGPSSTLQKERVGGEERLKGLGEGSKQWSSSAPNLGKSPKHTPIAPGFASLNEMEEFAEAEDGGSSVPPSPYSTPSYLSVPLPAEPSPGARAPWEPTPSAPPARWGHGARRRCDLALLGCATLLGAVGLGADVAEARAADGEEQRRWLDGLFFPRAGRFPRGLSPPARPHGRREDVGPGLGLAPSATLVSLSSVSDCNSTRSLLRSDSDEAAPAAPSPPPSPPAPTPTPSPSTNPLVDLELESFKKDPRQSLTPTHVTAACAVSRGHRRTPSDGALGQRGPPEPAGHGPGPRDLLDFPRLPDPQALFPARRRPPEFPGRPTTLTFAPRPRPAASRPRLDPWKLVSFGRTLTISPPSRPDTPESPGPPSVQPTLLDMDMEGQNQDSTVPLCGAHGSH
For test [6], the target named is full-length kinase/Nluc fusion proteins (Homo sapiens, UniProt Q16659). The note with it: MAPK6, Nluc N; read-out: Probe EC50.
Test [7] addresses full-length kinase/Nluc fusion proteins (Homo sapiens, UniProt P36888). The conditions noted are these: FLT3, Nluc C; read-out: Probe EC50.
The target in test [8] is full-length kinase/Nluc fusion proteins (Homo sapiens, UniProt P49760). The conditions noted are these: CLK2, Nluc C; read-out: Probe EC50.
The target in test [9] is full-length kinase/Nluc fusion proteins (Homo sapiens, UniProt Q8NG66). The note with it: NEK11, Nluc N; read-out: Probe EC50.
The target in test [10] is full-length kinase/Nluc fusion proteins (Homo sapiens, UniProt Q9NY57). The note with it: STK32B (NP_060871), Nluc orientation N; read-out: Probe EC50.
Sequence of full-length kinase/Nluc fusion proteins (Homo sapiens, UniProt Q9NY57) (Q9NY57 whole entry, the tested form may be a part): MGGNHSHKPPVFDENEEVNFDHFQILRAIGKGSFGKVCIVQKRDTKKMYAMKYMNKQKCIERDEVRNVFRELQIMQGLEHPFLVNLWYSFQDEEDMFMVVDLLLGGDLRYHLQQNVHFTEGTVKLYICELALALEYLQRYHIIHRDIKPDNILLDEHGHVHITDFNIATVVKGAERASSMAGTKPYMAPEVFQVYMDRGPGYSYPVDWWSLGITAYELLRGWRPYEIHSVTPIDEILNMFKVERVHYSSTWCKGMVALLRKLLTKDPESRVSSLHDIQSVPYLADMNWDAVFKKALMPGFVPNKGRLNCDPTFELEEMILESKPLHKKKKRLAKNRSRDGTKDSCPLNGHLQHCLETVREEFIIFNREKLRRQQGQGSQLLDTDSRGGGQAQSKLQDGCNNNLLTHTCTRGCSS
Test [11] has as its target full-length kinase/Nluc fusion proteins (Homo sapiens, UniProt P19784). The conditions noted are these: CSNK2A2, Nluc C; read-out: Probe EC50.
The target of test [12] is full-length kinase/Nluc fusion proteins (Homo sapiens, UniProt P33981). The conditions noted are these: TTK (NP_003309), Nluc orientation C; read-out: Probe EC50.
The target of test [13] is full-length kinase/Nluc fusion proteins (Homo sapiens, UniProt Q16620). The note with it: NTRK2, Nluc C; read-out: Probe EC50.
For test [14], the target named is full-length kinase/Nluc fusion proteins (Homo sapiens, UniProt Q8IWQ3). The conditions noted are these: BRSK2, Nluc N; read-out: Probe EC50.
The target in test [15] is full-length kinase/Nluc fusion proteins (Homo sapiens, UniProt Q13131). The note with it: PRKAA1, Nluc N; read-out: Probe EC50.
Test [16] concerns the target full-length kinase/Nluc fusion proteins (Homo sapiens, UniProt Q16816). The conditions noted are these: PHKG1, Nluc N; read-out: Probe EC50.
For test [17], the target named is full-length kinase/Nluc fusion proteins (Homo sapiens, UniProt P51956). The conditions noted are these: NEK3, Nluc N; read-out: Probe EC50.
Test [18] concerns the target full-length kinase/Nluc fusion proteins (Homo sapiens, UniProt Q9H1R3). The conditions noted are these: MYLK2, Nluc C; read-out: Probe EC50.
The target in test [19] is full-length kinase/Nluc fusion proteins (Homo sapiens, UniProt Q02763). The note with it: TEK (NP_000450), Nluc orientation C; read-out: Probe EC50.
For test [20], the target named is full-length kinase/Nluc fusion proteins (Homo sapiens, UniProt P04629). The conditions noted are these: NTRK1, Nluc C; read-out: Probe EC50.
Test [21] deals with full-length kinase/Nluc fusion proteins (Homo sapiens, UniProt Q5S007). The conditions noted are these: LRRK2, Nluc C; read-out: Probe EC50.
The target in test [22] is full-length kinase/Nluc fusion proteins (Homo sapiens, UniProt Q8WU08). The conditions noted are these: STK32A (NP_001106195), Nluc orientation N; read-out: Probe EC50.
Test [23] deals with full-length kinase/Nluc fusion proteins (Homo sapiens, UniProt Q02156). The note with it: PRKCE, Nluc C; read-out: Probe EC50.
Test [24] has as its target full-length kinase/Nluc fusion proteins (Homo sapiens, UniProt Q15569). The note with it: TESK1 (NP_006276), Nluc orientation N; read-out: Probe EC50.
Test [25] deals with full-length kinase/Nluc fusion proteins (Homo sapiens, UniProt P12931). The note with it: SRC (NP_005408), Nluc orientation C; read-out: Probe EC50.
Sequence of full-length kinase/Nluc fusion proteins (Homo sapiens, UniProt P12931) (P12931 whole entry, the tested form may be a part): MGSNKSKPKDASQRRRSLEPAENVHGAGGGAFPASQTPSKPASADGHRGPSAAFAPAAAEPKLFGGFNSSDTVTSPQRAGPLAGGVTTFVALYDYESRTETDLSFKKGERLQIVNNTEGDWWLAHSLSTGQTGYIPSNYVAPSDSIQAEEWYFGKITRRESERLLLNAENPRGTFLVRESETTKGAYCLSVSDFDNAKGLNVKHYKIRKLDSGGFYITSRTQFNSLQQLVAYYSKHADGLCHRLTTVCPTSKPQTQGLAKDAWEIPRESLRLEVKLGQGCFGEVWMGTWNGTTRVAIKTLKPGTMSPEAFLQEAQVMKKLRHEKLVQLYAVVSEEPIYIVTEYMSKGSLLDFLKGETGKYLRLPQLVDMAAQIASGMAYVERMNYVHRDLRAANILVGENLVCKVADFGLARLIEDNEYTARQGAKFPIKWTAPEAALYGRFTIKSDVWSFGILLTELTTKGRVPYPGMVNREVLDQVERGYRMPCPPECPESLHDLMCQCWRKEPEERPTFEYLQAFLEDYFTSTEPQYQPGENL
The target of test [26] is full-length kinase/Nluc fusion proteins (Homo sapiens, UniProt P07948). The note with it: LYN, Nluc C; read-out: Probe EC50.
For test [27], the target named is full-length kinase/Nluc fusion proteins (Homo sapiens, UniProt P51451). The note with it: BLK, Nluc N; read-out: Probe EC50.
Test [28] deals with full-length kinase/Nluc fusion proteins (Homo sapiens, UniProt P54753). The conditions noted are these: EPHB3, Nluc C; read-out: Probe EC50.
Test [29] addresses full-length kinase/Nluc fusion proteins (Homo sapiens, UniProt P42680). The conditions noted are these: TEC (NP_003206), Nluc orientation N; read-out: Probe EC50.
Test [30] deals with full-length kinase/Nluc fusion proteins (Homo sapiens, UniProt O15197). The note with it: EPHB6, Nluc C; read-out: Probe EC50.
The target of test [31] is full-length kinase/Nluc fusion proteins (Homo sapiens, UniProt Q08345). The conditions noted are these: DDR1, Nluc C; read-out: Probe EC50.
Test [32] has as its target full-length kinase/Nluc fusion proteins (Homo sapiens, UniProt Q07912). The conditions noted are these: TNK2 (NP_001010938), Nluc orientation C; read-out: Probe EC50.

Sequence of full-length kinase/Nluc fusion proteins (Homo sapiens, UniProt Q07912) (Q07912 whole entry, the tested form may be a part): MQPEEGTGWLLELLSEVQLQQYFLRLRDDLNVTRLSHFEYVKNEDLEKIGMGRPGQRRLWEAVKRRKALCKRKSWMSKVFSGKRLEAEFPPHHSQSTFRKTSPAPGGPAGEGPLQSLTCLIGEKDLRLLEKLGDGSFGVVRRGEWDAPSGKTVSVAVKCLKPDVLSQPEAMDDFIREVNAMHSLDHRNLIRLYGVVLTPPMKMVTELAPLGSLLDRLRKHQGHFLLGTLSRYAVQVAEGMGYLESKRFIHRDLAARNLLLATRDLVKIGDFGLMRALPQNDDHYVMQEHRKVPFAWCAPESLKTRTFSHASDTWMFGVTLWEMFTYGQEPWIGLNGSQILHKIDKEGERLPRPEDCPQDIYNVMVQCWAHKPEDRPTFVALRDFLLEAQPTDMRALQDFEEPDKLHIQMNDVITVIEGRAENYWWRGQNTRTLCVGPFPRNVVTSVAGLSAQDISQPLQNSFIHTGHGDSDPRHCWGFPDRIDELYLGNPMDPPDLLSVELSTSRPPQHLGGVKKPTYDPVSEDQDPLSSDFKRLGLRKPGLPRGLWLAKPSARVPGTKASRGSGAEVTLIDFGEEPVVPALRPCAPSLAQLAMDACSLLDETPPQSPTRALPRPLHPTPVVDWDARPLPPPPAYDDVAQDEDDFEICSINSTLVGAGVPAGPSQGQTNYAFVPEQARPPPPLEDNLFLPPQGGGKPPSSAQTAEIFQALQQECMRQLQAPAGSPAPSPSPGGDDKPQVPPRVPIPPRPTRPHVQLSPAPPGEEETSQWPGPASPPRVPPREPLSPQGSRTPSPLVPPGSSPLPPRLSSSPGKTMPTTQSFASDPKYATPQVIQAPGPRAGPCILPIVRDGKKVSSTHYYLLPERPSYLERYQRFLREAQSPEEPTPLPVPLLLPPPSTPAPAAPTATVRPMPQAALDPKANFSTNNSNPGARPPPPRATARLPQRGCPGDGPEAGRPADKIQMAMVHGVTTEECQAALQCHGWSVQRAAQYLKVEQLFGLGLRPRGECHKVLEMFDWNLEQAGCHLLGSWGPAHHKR
Sequence of full-length kinase/Nluc fusion proteins (Homo sapiens, UniProt Q15569) (Q15569 whole entry, the tested form may be a part): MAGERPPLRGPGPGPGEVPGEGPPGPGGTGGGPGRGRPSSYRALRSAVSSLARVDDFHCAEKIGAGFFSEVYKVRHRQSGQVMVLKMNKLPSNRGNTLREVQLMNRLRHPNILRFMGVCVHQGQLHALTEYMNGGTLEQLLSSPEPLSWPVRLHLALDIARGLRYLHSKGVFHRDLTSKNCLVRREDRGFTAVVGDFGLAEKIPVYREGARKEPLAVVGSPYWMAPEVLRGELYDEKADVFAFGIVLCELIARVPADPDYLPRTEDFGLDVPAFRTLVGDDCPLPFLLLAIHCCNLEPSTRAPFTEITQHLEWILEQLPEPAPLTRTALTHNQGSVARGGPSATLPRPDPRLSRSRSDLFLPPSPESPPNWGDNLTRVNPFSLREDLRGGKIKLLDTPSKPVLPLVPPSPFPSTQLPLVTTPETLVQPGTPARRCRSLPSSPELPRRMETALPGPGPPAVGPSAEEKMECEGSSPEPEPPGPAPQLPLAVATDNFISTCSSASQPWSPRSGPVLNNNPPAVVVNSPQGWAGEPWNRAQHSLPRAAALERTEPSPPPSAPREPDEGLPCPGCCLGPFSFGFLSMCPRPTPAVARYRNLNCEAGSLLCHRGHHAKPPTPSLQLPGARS
Sequence of full-length kinase/Nluc fusion proteins (Homo sapiens, UniProt Q9H1R3) (Q9H1R3 whole entry, the tested form may be a part): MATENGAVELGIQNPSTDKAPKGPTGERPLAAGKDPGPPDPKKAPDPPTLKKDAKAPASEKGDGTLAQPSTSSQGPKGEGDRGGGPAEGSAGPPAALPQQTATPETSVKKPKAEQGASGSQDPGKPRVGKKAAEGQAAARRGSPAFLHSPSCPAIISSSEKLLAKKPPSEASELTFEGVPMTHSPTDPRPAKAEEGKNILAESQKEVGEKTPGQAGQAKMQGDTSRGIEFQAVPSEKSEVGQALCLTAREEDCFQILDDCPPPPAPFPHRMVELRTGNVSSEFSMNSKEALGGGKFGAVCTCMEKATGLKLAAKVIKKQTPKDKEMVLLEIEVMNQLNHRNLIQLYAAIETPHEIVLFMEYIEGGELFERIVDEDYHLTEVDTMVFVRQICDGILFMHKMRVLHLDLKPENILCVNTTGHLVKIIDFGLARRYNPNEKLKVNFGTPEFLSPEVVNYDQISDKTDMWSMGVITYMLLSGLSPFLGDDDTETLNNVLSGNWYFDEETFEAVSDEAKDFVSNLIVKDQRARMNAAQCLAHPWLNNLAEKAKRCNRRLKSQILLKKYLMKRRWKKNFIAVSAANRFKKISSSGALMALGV
Sequence of full-length kinase/Nluc fusion proteins (Homo sapiens, UniProt P49759) (P49759 whole entry, the tested form may be a part): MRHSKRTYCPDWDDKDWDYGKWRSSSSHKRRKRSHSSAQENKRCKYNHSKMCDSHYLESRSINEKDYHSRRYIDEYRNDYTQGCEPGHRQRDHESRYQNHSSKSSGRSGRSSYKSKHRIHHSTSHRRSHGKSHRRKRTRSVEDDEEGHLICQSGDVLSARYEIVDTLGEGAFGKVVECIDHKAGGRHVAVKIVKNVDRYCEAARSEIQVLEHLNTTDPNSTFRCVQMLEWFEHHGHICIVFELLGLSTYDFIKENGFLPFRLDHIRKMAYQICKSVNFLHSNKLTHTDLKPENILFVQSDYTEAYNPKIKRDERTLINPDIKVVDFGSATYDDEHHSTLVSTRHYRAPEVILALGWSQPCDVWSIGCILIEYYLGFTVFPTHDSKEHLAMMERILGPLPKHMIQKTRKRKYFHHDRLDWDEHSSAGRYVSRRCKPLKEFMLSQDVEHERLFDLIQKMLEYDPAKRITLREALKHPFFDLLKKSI
Sequence of full-length kinase/Nluc fusion proteins (Homo sapiens, UniProt P19784) (P19784 whole entry, the tested form may be a part): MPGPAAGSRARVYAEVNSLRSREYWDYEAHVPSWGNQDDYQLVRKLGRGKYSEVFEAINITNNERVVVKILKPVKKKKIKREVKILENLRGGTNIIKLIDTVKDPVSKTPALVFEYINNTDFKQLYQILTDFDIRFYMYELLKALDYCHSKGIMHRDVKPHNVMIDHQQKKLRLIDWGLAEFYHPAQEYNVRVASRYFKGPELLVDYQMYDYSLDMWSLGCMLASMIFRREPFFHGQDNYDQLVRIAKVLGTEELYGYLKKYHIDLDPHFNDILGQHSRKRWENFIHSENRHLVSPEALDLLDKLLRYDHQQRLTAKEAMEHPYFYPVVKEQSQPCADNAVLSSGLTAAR

As to `CNC(=O)c1ccccc1Nc1nc(Nc2ccc(N3CCN(C(=O)CCOCCOCCOCCOCCNC(=O)CCc4ccc5n4[B-](F)(F)[N+]4=C(c6ccc[nH]6)C=CC4=C5)CC3)cc2)ncc1Cl` [Energy Transfer Probe 5, 2-((2-((4-(4-(1-amino-3,6,9,12-tetraoxapentadecan-15-oyl)piperazin-1-yl)phenyl)amino)-5-chloropyrimidin-4-yl)amino)-N-methylbenzamide-NanoBRET 590], the half-maximal effective concentration (EC50) (usually the concentration needed to bring the measured effect to its halfway point) in test [1] was over 1000 nM; in [2] it was over 1000 nM; in [3], over 1000 nM; in test [4], over 1000 nM; in [5], over 1000 nM; in test [6], 400 nM. In addition, the EC50 in [7] was over 1000 nM; in test [8], over 1000 nM; in test [9] it was over 1000 nM; in test [10] it was 600 nM; in [11] it was over 1000 nM; in [12] it was 300 nM. Further, the EC50 in test [13] is 500 nM; in test [14] it was over 1000 nM; in [15] it was 300 nM; in [16], 400 nM; in test [17] it was over 1000 nM; in [18] it was over 1000 nM. Moreover, the EC50 in [19] was 400 nM; in test [20], 400 nM; in test [21], over 1000 nM; in [22], over 1000 nM; in [23], over 1000 nM.
For the compound `Cc1nc(Nc2ncc(C(=O)Nc3c(C)cccc3Cl)s2)cc(N2CCN(CCOCCNC(=O)CCc3ccc4n3[B-](F)(F)[N+]3=C(c5ccc[nH]5)C=CC3=C4)CC2)n1` [Energy Transfer Probe 6, 2-((6-(4-(2-(2-aminoethoxy)ethyl)piperazin-1-yl)-2-methylpyrimidin-4-yl)amino)-N-(2-chloro-6-methylphenyl)thiazole-5-carboxamide-NanoBRET 590], the EC50 is over 1000 nM in test [24]; 300 nM in test [25]; over 1000 nM in test [26]; 300 nM in test [27]; 200 nM in test [28]; over 1000 nM in test [29]. In addition, the EC50 is over 1000 nM in test [30], 40 nM in test [31] and 100 nM in test [32].
